Patent US12065421B2, “Inhibitors of oplophorus luciferase-derived bioluminescent complexes” (priority 2018, dated 2024)

Experiments:
[1] = target: NanoLuc (Oplophorus gracilirostris, UniProt Q9GV45, A31E/A60N/A81I/F95D/I117V/K70R/L54V/L99Q/M102K/N193R/P142E/Q151K/Q38R/Q45L/V71I/Y165I); test: NANOLUC® (Nluc) inhibitory activity (FIG. 2); assay type: biochemical; conditions: Nluc 2 ng/ml in NanoGlo® buffer, 100 μM furimazine
Description: FIG. 2 compares the NANOLUC® (Nluc) inhibitory activity of exemplary compounds of the present invention to PBI-6096, a known Nluc inhibitor. Inhibitors were diluted into CO2-independent media with 10% FBS. Nluc was diluted to 2 ng/ml into NanoGlo® buffer with 100 μM furimazine. Serial dilutions of the inhibitors were added to the NanoLuc/furimazine/NanoGlo® solution, and samples were immediately analyzed using a GloMax®-Multi+ Plate Reader.

[2] = system: NanoBiT® HiBit/LgBit bioluminescent complex; assay type: cell-based, Oplophorus gracilirostris; conditions: HEK293 cells, optionally lysed with 50 ug/mL digitonin
Description: In FIG. 3B, HEK293 cells were transfected with DNA encoding an intracellular NanoBiT® HiBiT fusion protein and DNA encoding an intracellular NanoBiT® LgBiT fusion protein such that the fusion proteins were co-expressed within the cell. Transfected cells were plated at 20,000 cells/100 μL growth medium and incubated for 24 hours. Following 24 hours of expression, cells were optionally lysed with 50 ug/mL of digitonin in OptiMEM and treated with serial dilutions of HL-0005. After 2 hours of incubation at room temperature, furimazine was added (10 μM final concentration), and luminescence was measured on a GloMax® Multi+ Plate Reader.

[3] = system: NanoBiT® HiBit/LgBit bioluminescent complex; test: Inhibition of bioluminescent complex in lysed HEK293 cells expressing HiBiT fusion plus purified LgBiT (FIG. 3A); assay type: cell-based, Oplophorus gracilirostris; conditions: HEK293 cells lysed with digitonin, purified LgBiT added, 2 hours, 10 μM furimazine
Description: FIGS. 3A-3B show the inhibition of bioluminescent complexes in cells. In FIG. 3A, HEK293 cells were transfected with DNA encoding an intracellular NanoBiT® HiBiT fusion protein, plated at 20,000 cells/100 μL growth medium, and incubated for 24 hours. Following 24 hours of expression, cells were lysed with 50 ug/mL (final) of digitonin in OptiMEM and treated with purified NanoBiT® LgBiT non-luminescent polypeptide and serial dilutions of HL-0005. After 2 hours of incubation at room temperature, furimazine was added (10 μM final concentration), and luminescence was measured on a GloMax®-Multi+ Plate Reader.

Chain of NanoLuc (Q9GV45 28-196 with tags or gaps with the stated changes limits assumed): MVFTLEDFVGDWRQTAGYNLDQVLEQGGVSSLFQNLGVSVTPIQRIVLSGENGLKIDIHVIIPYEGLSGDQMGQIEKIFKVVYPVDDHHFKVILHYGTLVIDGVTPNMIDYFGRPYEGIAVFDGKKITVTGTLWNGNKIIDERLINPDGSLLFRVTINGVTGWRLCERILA

Row | SMILES | inhibition against NanoLuc [1] | cell permeability (IC50 values in lytic and non-lytic conditions compared) [2] | inhibition of HiBit/LgBit bioluminescent complex in a cellular context [3]
1 | Cc1ccc(S(=O)(=O)Nc2ccccc2C(=O)Nc2sc3c(c2C#N)CCCC3)cc1 [JRW-1004, N-(3-cyano-4,5,6,7-tetrahydrobenzo[b]thiophen-2-yl)-2-((4-methylphenyl)sulfonamido)benzamide] | do not show any appreciable inhibition | – | –
2 | N#Cc1c(NC(=O)c2ccccc2NS(=O)(=O)c2ccccc2)sc2c1CCC2 [HL-0010, N-(3-cyano-5,6-dihydro-4H-cyclopenta[b]thiophen-2-yl)-2-(phenylsulfonamido)benzamide] | do not show any appreciable inhibition | – | –
3 | Cc1ccc(S(=O)(=O)Nc2ccccc2C(=O)Nc2cc3ccccc3s2)cc1 [HL-0005, N-(benzo[b]thiophen-2-yl)-2-((4-methylphenyl)sulfonamido)benzamide] | do not show any appreciable inhibition | mostly cell permeable | inhibition
